± gives the expanded uncertainty stated by the source.
Conditions: Liquid, Closed cell (Static) method

## CCCC [butane]
273.27 K
  vapor or sublimation pressure: 104 ± 1 kPa
288.25 K
  vapor or sublimation pressure: 177 ± 1 kPa
294.23 K
  vapor or sublimation pressure: 215 ± 1 kPa
296.23 K
  vapor or sublimation pressure: 231 ± 1 kPa
308.21 K
  vapor or sublimation pressure: 332 ± 1 kPa
323.19 K
  vapor or sublimation pressure: 498 ± 1 kPa

## FC(F)(F)C(F)(F)F [hexafluoroethane]
273.27 K
  vapor or sublimation pressure: 1851 ± 3 kPa
288.25 K
  vapor or sublimation pressure: 2708 ± 4 kPa

Source: the NIST ThermoML archive (doi:10.1021/acs.jced.7b00485)
